From patent US20110065760A1, “COMPOUNDS FOR THE INHIBITION OF ROTAMASES AND USE THEREOF” (Jerini AG, priority 2002, published 2011)

Experiments:
[1] = WST-1 cytotoxicity assay, PC-3; format: cell-based; settings: human, PC-3 cells (prostate carcinoma); WST-1, 48 h incubation; read-out: EC50 class, cytotoxic effect, CL-3 (PC-3)
Experimental: (§1) For this cytotoxic evaluation of the compounds the commercial available WST-1 assay (Roche) was used according to the manufacturer's instructions. The assay is based on the cleavage of the tetrazolium salt WST-1 by mitochondrial dehydrogenases found in viable cells. In general compounds were added to cells cultured in 96-well plates at 37° C. After 48 h of incubation 10 μl of WST-1 solution was added. The formazan dye was analyzed with an ELISA plate reader at (450 vs. 620) nm. CL-1: human acute myeloid leukemia, HL-60 CL-2: human cervix carcinoma, HeLa CL-3: human prostate carcinoma, PC-3 CL-4: human colon adenocarcinoma, Caco-2 CL-5: human breast adenocarcinoma, MCF-7

cathepsin B = cathepsin B (Homo sapiens, UniProt P07858); assay: cathepsin B assay; format: biochemical; settings: 0.2 μg/ml cathepsin B, 2 mM Z-Arg-Arg-pNA, pH 5.8, 30° C., 30 min incubation; read-out: IC50 class, Target T-8 (Cathepsin)
Experimental: (§2) In order to investigate the impact of some of the inventive compounds on the activity of key proteases the following assay was performed: Protease activities were measured spectrophotometrically at 30° C. according to Schomburg and Salzmann (Schomburg, B.; Salzmann M. GBF: Enzyme Handbook. Springer Verlag, Berlin Heidelberg, 1991) and Bergmeyer et al. (Bergmeyer, H. U.; Bergmeyer, J.; Graβl, M. Methods of Enzymatic Analysis, Vol. V Enzymes 3: Peptides, Proteinases and Their Inhibitors. pp 55-371, VCH, Weinheim, 1988). The release of 4-nitroaniline was determined at 390 nm with a Spectramax Plus UV/Vis spectrophotometer (Molecular Devices). The cathepsin B assay was performed in a reaction mixture containing 0.2 μg/ml cathepsin B, 2 mM Z-Arg-Arg-pNA in 88 mM KH2PO4, 12 mM Na2HPO4, 1.33 mM EDTA, 0.03% Brij 35 (pH 5.8). The trypsin assay was carried out in a reaction mixture containing 0.1 μg/ml trypsin and 120 μM Ac-Ala-Ala-Ser(PO3H2)-Pro-Arg-pNA in 35 mM HEPES (pH 7.8) and the papain assay in a mixture consisting of 16 μg/ml papain and 2 mM Bz-DL-Arg-pNA in 10 mM Na2HPO4, 2 mM L-Cys, 5 mM EDTA (pH 6.5). In general, reactions were started by addition of peptide substrate after a 30 min incubation of 1-100 μM effector with given concentrations of enzyme.

Papain = target: T1, Papain (Carica papaya, UniProt P00784); assay: papain assay; format: biochemical; settings: 16 μg/ml papain, 2 mM Bz-DL-Arg-pNA, pH 6.5, 30° C., 30 min incubation; read-out: IC50 class, Target T-6 (Papain)
T1 sequence (P00784 134-345): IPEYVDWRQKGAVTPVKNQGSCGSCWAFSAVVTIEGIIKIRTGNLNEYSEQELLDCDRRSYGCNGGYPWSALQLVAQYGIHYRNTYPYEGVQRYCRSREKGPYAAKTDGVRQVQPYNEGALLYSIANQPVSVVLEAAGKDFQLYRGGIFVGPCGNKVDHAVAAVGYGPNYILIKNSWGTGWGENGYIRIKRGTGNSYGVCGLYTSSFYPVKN
Experimental: as §2

[2] = WST-1 cytotoxicity assay, HL-60; format: cell-based; settings: human, HL-60 cells (acute myeloid leukemia); WST-1, 48 h incubation; read-out: EC50 class, cytotoxic effect, CL-1 (HL-60)
How it was run: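 Human tumour cell lines in culture were exposed to compounds at 37° C for 48 h, then given WST-1. Viability was read as formazan absorbance at (450 vs. 620) nm.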

[3] = system: cyclin D1 in MCF-7 and HeLa cells; assay: Cyclin D1 down regulation (western blot marker analysis); format: cell-based, human
Experimental: MCF-7 (5×10^5 cells/well) and HeLa cells (1.5×10^5 cells/well) were seeded in 6-well plates and incubated at 37° C. over night. Compounds or DMSO (final solvent concentration 0.1%) were added to the cells and incubated for different times as indicated. Subsequently, cells were lysed in RIPA buffer for 30 min on ice and centrifuged for 20 min at 4° C. After addition of electrophoresis sample buffer (4×) and 50 mM DTT to the supernatant, samples were boiled for 4 min at 95° C. Samples (equivalent to 2×10^5 cells/well) were run on a 15% SDS gel followed by blotting onto PVDF membrane.
The membrane was blocked for 1 h in 10 mM Tris (pH 7.5), 100 mM NaCl, 0.1% Tween-20 and 5% non-fat dry milk (blocking buffer) and incubated for 1 h with mouse anti-hCyclin D1 monoclonal antibody (clone DCS-6, BD Biosciences) diluted to 1 μg/ml in blocking buffer. Blots were washed 3×10 min with 10 mM Tris (pH 7.5), 100 mM NaCl, 0.1% Tween-20 (washing buffer) and incubated with 0.7 μg/ml peroxidase-conjugated sheep anti-mouse IgG (Sigma) in blocking buffer for 1 h. After washing 3×10 min with washing buffer, the plot was developed with the ECL+ detection kit (Amersham Biosciences).

[4] = WST-1 cytotoxicity assay, Caco-2; format: cell-based; settings: human, Caco-2 cells (colon adenocarcinoma); WST-1, 48 h incubation; read-out: EC50 class, cytotoxic effect, CL-4 (Caco-2)
Experimental: as §1

HL-60 cells = assay: FACS measurements and TUNEL assay (Apo-Direct kit); format: cell-based, human; settings: FIG. 2
From the text: Enari M. Sakahira H. Yokoyama H. Okawa K. Iwamatsu A. Nagata S. A caspase-activated DNase that degrades DNA during apoptosis, and its inhibitor ICAD [erratum appears in Nature 1998 May 28; 393(6683):396.]. Nature. 391:43-50, 1998 • Darzynkiewicz Z. Juan G. Li X. Gorczyca W. Murakami T. Traganos F. Cytometry in cell necrobiology: analysis of apoptosis and accidental cell death (necrosis). Cytometry. 27:1-20, 1997
Apoptotic HL-60 cells were detected by FACS analysis of FITC-dUTP-labelled DNA breaks using the Apo-Direct kit (BD-Pharmingen) according to the manufacturer's protocol.

hPin1 = hPin1 (Homo sapiens, UniProt Q13526); assay: protease-coupled PPIase assay, hPin1; format: biochemical; settings: 6 nM hPin1, substrate Ac-Ala-Ala-Ser(PO3H2)-Pro-Arg-pNA, trypsin, pH 7.8, 6° C.; read-out: IC50 class, Target T-1 (hPin1)
Hela cells = assay: DAPI staining; format: cell-based, human; settings: FIG. 3
Experimental: Hela cells grown on poly-L-Lys-coated coverslips were fixed with 2% paraformaldehyde/MeOH.
Cellular DNA was stained with DAPI staining buffer (100 mM Tris (pH 7.4), 150 mM NaCl, 1 mM CaCl2, 0.5 mM MgCl2, 0.1% nonidet P-40, 1 μg/ml DAPI (Molecular Probes)). All the steps were performed at room temperature, and cells were washed two times with PBS after each step. Finally, cells were mounted in 80% glycerol/PBS.

[5] = system: tumor cell lines (HL-60, HeLa, PC-3, Caco-2, MCF-7); assay: WST-1 cytotoxicity assay, tumor cell lines (panel statement); format: cell-based, human; settings: WST-1, 48 h; table 4
Experimental: as §1

Trypsin = target: T2, Trypsin (UniProt P00760); assay: trypsin assay; format: biochemical; settings: 0.1 μg/ml trypsin, 120 μM Ac-Ala-Ala-Ser(PO3H2)-Pro-Arg-pNA, pH 7.8, 30° C., 30 min incubation; read-out: IC50 class, Target T-7 (Trypsin)
T2 sequence (P00760 1-246): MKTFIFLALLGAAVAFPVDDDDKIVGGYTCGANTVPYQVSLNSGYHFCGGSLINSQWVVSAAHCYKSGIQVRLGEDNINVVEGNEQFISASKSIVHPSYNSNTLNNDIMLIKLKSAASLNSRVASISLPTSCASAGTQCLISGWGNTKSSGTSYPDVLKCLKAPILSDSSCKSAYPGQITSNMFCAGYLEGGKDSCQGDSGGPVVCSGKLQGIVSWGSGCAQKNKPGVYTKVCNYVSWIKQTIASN
Experimental: as §2

[6] = WST-1 cytotoxicity assay, HeLa; format: cell-based; settings: human, HeLa cells (cervix carcinoma); WST-1, 48 h incubation; read-out: EC50 class, cytotoxic effect, CL-2 (HeLa)
Experimental: as §1

[7] = WST-1 cytotoxicity assay, MCF-7; format: cell-based; settings: human, MCF-7 cells (breast adenocarcinoma); WST-1, 48 h incubation; read-out: EC50 class, cytotoxic effect, CL-5 (MCF-7)
Experimental: as §1

hPin1, sequence (Q13526 whole entry): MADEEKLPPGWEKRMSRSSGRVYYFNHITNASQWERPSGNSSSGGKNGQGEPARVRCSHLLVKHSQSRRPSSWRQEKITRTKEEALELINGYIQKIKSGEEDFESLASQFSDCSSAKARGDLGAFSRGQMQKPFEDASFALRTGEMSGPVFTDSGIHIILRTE

IC50 (cathepsin B): > 100 µM
IC50 (Papain): > 100 µM
IC50 (hPin1): < 1000 nM
IC50 (Trypsin): > 100 µM
SMILES: Cc1c(Cl)cc(NC(=S)Nc2ccc(C(F)(F)F)cc2)c(O)c1Cl [Compound 264]
EC50 at 48 h [1]: < 10 µM
EC50 at 48 h [2]: < 10 µM
cyclin D1 down regulation [3]: particular relevance
EC50 at 48 h [4]: < 10 µM
induction of apoptosis (FACS analysis of FITC-dUTP-labelled DNA breaks) (HL-60 cells): induce apoptosis
induction of apoptosis (DAPI staining, fluorescence microscopy) (Hela cells): induce apoptosis
cytotoxic effect on the tumor cell lines tested [5]: particular relevance
EC50 at 48 h [6]: < 10 µM
EC50 at 48 h [7]: < 10 µM
